Measured values published in patent publication US11111500B2, “Mutated protoporphyrinogen IX oxidase (PPX) genes” (CIBUS US LLC, priority 2010, dated 2021).

What was measured:
potato plastidal PPX [1] = assay: Tolerance to flumioxazin of HemG mutant E. coli complemented with potato plastidal PPX (liquid selection, colony count); assay type: cell-based, Solanum tuberosum
Description: (§1) StcPPX1, less its chloroplast transit peptide was cloned from cDNA into Cibus' proprietary functional screening vector. This vector may be used both for functional screening, and for GRON QC. The potato PPX genes were used to complement the HemG mutant strain of E. coli, which lacks a functional HemG gene, a bacterial homolog of PPX. Without a complementing gene, the media must be supplemented with hematin for E. coli growth.
(§2) In order to assess mutations that confer tolerance to PPX inhibitors such as Chateau (flumioxazin-Valent/Sumitomo), Naja (diphenylether—MAI) or Kixor (saflufenacil—BASF). Pure active ingredients for the PPX inhibiting herbicides Chateau (flumioxazin—Valent/Sumitomo), Spartan (sulfentrazone—FMC) and Kixor/Sharpen (saflufenacil—BASF) were obtained. […]
(§3) Liquid culture selection conditions were developed for both sulfentrazone and flumioxazin. […] Spectrophotometric readings (OD600) were taken for each sample (1:4 dilution) and a sample of each plated on LB-Chlor-IPTG plates to determine whether the OD600 correlated with the number of viable colonies. […]
(§4) Randomly mutagenized plasmids (5′ and 3′ ends) were transformed into XL1-Blue E. coli cells. […] Colony counts were compared between the two and mutation tolerance determined based on the percentage of colonies on the 0.75 mM sulfentrazone plates as compared with those on the 0 mM plates. […]

potato plastidal PPX [2] = assay: Tolerance to sulfentrazone of HemG mutant E. coli complemented with potato plastidal PPX (plate selection, colony count); assay type: cell-based, Solanum tuberosum; conditions: wild-type potato plastidal PPX clone in hemG mutant E. coli
Description: as §1, §2, §3, §4

[3] = system: leaf disc explants of in vitro grown potato plants; assay: Leaf disk kill curve (callus formation in leaf disc explants); assay type: cell-based
Experimental: Aimed at establish the concentration of sulfentrazone that will inhibit callus formation in leaf disc explants, leaf discs were punched with a sterile hole punch from 5 weeks old in vitro grown potato plants. The leaf discs were cultured in petri dishes containing solid Haberlach culture medium containing various concentrations of Sulfentrazone in a final concentration of 1% DMSO. Six leaf discs cultured at each herbicide concentration. Plates were sealed with micropore tape and incubated at room temperature (approximately 23° C.). In an initial experiment, 7.8 μM sulfentrazone, the lowest concentration tested in that experiment, was sufficient to stop callus formations and bleach all leaf discs within 20 days. […] Similar leaf disc kill curve experiments were performed using saflufenacil where 0.5 μM of this herbicide was sufficient to inhibit callus formation in almost all leaf discs after 20 days.

Compound: C#CCN1C(=O)COc2cc(F)c(N3C(=O)C4=C(CCCC4)C3=O)cc21 [flumioxazin]
- colony numbers against the WT gene with increasing flumioxazin (potato plastidal PPX [1]; 0 to 10 mM in 1 mL liquid cultures): steadily decreasing colony numbers
- growth of the wildtype construct at 10 mM flumioxazin (potato plastidal PPX [1]; 10 mM flumioxazin, liquid selection): limited growth

Compound: Cc1nn(-c2cc(NS(C)(=O)=O)c(Cl)cc2Cl)c(=O)n1C(F)F [sulfentrazone]
- sulfentrazone concentration on which the wildtype construct did not grow (potato plastidal PPX [2]): 2.5 mM
- concentration sufficient to stop callus formations and bleach all leaf discs within 20 days ([3]; initial experiment, lowest concentration tested, 1% DMSO): 7.8 µM
- time after which callus initiated on the leaf veins of some leaf discs ([3]; leaf discs grown on 2.0 μM): 13 days
- concentration sufficient to inhibit callus formation in almost all leaf discs after 20 days ([3]; solid Haberlach culture medium, 1% DMSO): 3.0 µM
